The assay has as its system HEV. The assay can be described thus: HEV RNA test in a human subject with HEV infection (case, Example 1). It is filed as in vivo. The method, then: A human subject was identified as having AIDS, Kaposi's sarcoma, non-Hodgkin's lymphoma, compensated cirrhosis, and a history of alcoholism. An HEV RNA test of the subject was conducted, and the result was positive, at approximately 20,000 IU/mL. The subject was started on ribavirin monotherapy, wherein ribavirin was administered to the subject at 800 mg once per day. […] The subject was then started on a treatment wherein ribavirin administration was continued at 800 mg per day and sofosbuvir was also administered at 400 mg per day. After four weeks of such treatment, the subject's HEV RNA levels were below the lower limit of detection of about 25 IU/mL.

In the case of `CC(C)OC(=O)[C@H](C)N[P@](=O)(OC[C@H]1O[C@@H](n2ccc(=O)[nH]c2=O)[C@](C)(F)[C@@H]1O)Oc1ccccc1` [sofosbuvir, (S)-isopropyl 2-(((S)-(((2R,3R,4R,5R)-5-(2,4-dioxo-3,4-dihydropyrimidin-1(2H)-yl)-4-fluoro-3-hydroxy-4-methyltetrahydrofuran-2-yl)methoxy)(phenoxy)phosphoryl)amino)propanoate], the “HEV RNA levels” value (sofosbuvir 400 mg per day together with continued ribavirin 800 mg per day, after four weeks, same subject, lower limit of detection about 25 IU/mL) is less than 25 IU/mL.
For `NC(=O)c1ncn([C@@H]2O[C@H](CO)[C@@H](O)[C@H]2O)n1` [ribavirin], under “ribavirin monotherapy 800 mg once per day for over one year, human subject, baseline HEV RNA approximately 20,000 IU/mL”, the HEV status entry is on record as “remained HEV-positive”.

The values above are taken from patent US20170348343A1, “METHODS OF TREATING HEPATITIS E VIRAL INFECTION” (Gilead Pharmasset LLC, priority 2016, published 2017).
